Source: US6767738B1, “Method of isolating adult mammalian CNS-derived progenitor stem cells using density gradient centrifugation” (The Salk Institute for Biological Studies, priority 1999, dated 2004)

Tests used:
[1] = system: low-buoyancy cortical cells; assay: Acquisition of neuron competence by low-buoyancy cortical cells in culture; format: cell-based, rat
Source text: (§1) Tissue dissection: Three areas were dissected from adult rat brains as follows. Rats (170-190 g Fisher 344 males or females, Harlan) were deeply anesthetized with a mixture of ketamine, xylazine, and acepromazine. Animals were decapitated and whole brains removed. First, ˜1.5 mm of each optic nerve were harvested rostral to, but not including, the optic chiasma. The brain was then bisected longitudinally and each hippocampal lobe separated from the overlaying cortical white matter using the natural separation line along the alveus hippocampus. The white matter of the fimbria and subiculum was removed as much as possible. Some white matter remained. Finally, a 1.5 mm wide cortical ribbon containing parietal and frontal segments was dissected longitudinally, proximal to the central fissure. The pial and callosal surfaces were trimmed from each cortical ribbon to remove a majority of the meninges and white matter.
Tissue dissociation and fractionation: Tissues were finely minced and digested in a solution of papain (2.5 U/ml, Worthington), DNAse (250 U/ml, Worthington), and neutral protease (1 U/ml Dispase, Boehringer) dissolved in Hanks balanced salt solution, as described in Palmer T D, Ray J, Gage F H (1995), FGF-2-Responsive Neuronal Progenitors Reside in Proliferative and Quiescent Regions of the Adult Rodent Brain. Mol Cell Neurosci 6:474-486; and Gage F H, Coates P W, Palmer T D, Kuhn H G, Fisher L J, Suhonen J O, Peterson D A, Suhr S T, Ray J (1995), Survival and differentiation of adult neuronal progenitor cells transplanted to the adult brain. Proc Natl Acad Sci USA 92:11879-11883. Cells and tissue fragments were washed 3 times with Dulbecco's Modified Eagles Medium (DMEM) containing 10% […] bovine serum (defined FBS, Hyclone). Whole digested tissue was then suspended in DMEM 10% FBS, filtered through a sterile 107 μm nylon mesh and thoroughly mixed with an equal volume of PERCOLL™ (polyvinylpyrrolidone-coated silica colloids) solution. The PERCOLL™ (polyvinylpyrrolidone-coated silica colloids) solution was made by mixing 9 parts of PERCOLL™ (polyvinylpyrrolidone-coated silica colloids) (Pharmacia) with 1 part 10X phosphate buffered saline (PBS, Irvine Scientific). The cell suspension was then fractionated by centrifugation for 30 minute, 18°C., at 20,000×g. […]
To determine how rapidly cortical cells acquired the competence to differentiate into neurons in culture, cells were isolated and cultured in growth medium for various times, allowed to differentiate in differentiation medium and then evaluated for the presence of neurons. […] Cultures were also treated with BrdU for the first 10 days and the newly generated neurons were evaluated for evidence of cell division. All neurons scored were labeled (>99%).

[2] = system: optic nerve low-buoyancy cells; assay: Neuron generation from optic nerve low-buoyancy cells; format: cell-based, rat; conditions: 14 days high FGF-2, then 14 days differentiation; mean +/- s.e.m., n=5
Source text: as §1, with “matter. […]” for “matter.”
To determine if there were progenitors in the optic nerve with a latent ability to generate neurons, optic nerve was harvested, dissociated and fractioned. […] On day 28, cultures were calculated for the presence of neurons (β Tubulin) and those neurons present were scored for BrdU-immunoreactivity. Although many glia rapidly differentiated in the primary culture, clusters of proliferative precursor-like calls were readily detected. […]

## FGF-2: basic fibroblast growth factor, human recombinant, prepared in E. coli
[1]; BrdU for the first 10 days
  newly generated neurons labeled with BrdU: > 99%
[1]; after three days in FGF-2
  neurons observed in cortical cultures: the occasional neuron was observed
[1]; by 4 weeks in FGF-2 growth medium, 3 passages
  cells that formed neurons when induced to differentiate: roughly 10%
[2]
  β Tubulin-positive neurons, of the total population: 0.8% +/− 0.3
